Source: patent US7598244B2, “[1,2,4]triazolo[1,5,a]pyrimidin-2-ylurea derivative and use thereof” (Nippon Kayaku Kabushiki Kaisha, priority 2003, dated 2009)

Test system: MHC class I molecules of T1 cells (human lymphoma cell line 174×CEM.)
Assay: Effect on expression of MHC class I from T1 cells (flow cytometry, MFI)
Format: cell-based
Details: 3 days culture
How it was run: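 EC20 is the compound level that lowers MHC class I MFI by 20% relative to compound-free cultures. Read-out was flow cytometry after FITC W6/32 staining.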

Structure (SMILES) | EC20 (concentration necessary for suppressing 20% of the expression level of MHC class I molecules)
CC(C)CCC[C@H](C)NC(=O)Nc1nc2nccc(-c3ccc(OCCN4CCOCC4)cc3)n2n1.Cl [Example 258, (S)-1-(1,5-dimethylhexyl)-3-{7-[4-(2-morpholin-4-ylethoxy)phenyl]-[1,2,4]triazolo[1,5-a]pyrimidin-2-yl}urea hydrochloride] | 0.0087 µM
CC(C)CCC[C@H](C)NC(=O)Nc1nc2nccc(-c3cccc(OCCN4CCOCC4)c3)n2n1 [Example 259] | 0.06 µM
CC(C)CCC[C@H](C)NC(=O)Nc1nc2nccc(-c3cccc(OCC4CCCO4)c3)n2n1 (stereo partly drawn) [Example 260] | 0.06 µM
CC(C)CCC[C@H](C)NC(=O)Nc1nc2nccc(-c3cccc(OCc4cccnc4)c3)n2n1 [Example 261] | 0.08 µM
COCCOc1ccc(-c2ccnc3nc(NC(=O)N[C@@H](C)CCCC(C)C)nn23)cc1 [Example 262, (S)-1-(1,5-dimethylhexyl)-3-{7-[4-(2-methoxyethoxy)phenyl]-[1,2,4]triazolo[1,5-a]pyrimidin-2-yl}urea] | 0.03 µM
COCCOCCOCCOc1ccc(-c2ccnc3nc(NC(=O)N[C@@H](C)CCCC(C)C)nn23)cc1 [Example 263] | 0.0079 µM
COCCOc1cccc(-c2ccnc3nc(NC(=O)N[C@@H](C)CCCC(C)C)nn23)c1 [Example 264] | 0.07 µM
COCCOCCOCCOc1cccc(-c2ccnc3nc(NC(=O)N[C@@H](C)CCCC(C)C)nn23)c1 [Example 265] | 0.11 µM
C[C@H](NC(=O)Nc1nc2nccc(-c3ccc(O)cc3)n2n1)c1cccc(O)c1 [Example 266] | 0.2 µM
C[C@H](NC(=O)Nc1nc2nccc(-c3cccc(O)c3)n2n1)c1cccc(O)c1 [Example 267] | 0.55 µM
COc1cccc([C@H](C)NC(=O)Nc2nc3nccc(-c4ccc(OCCN5CCOCC5)cc4)n3n2)c1 [Example 269] | 0.015 µM
CC(CCCC(C)(C)O)NC(=O)Nc1nc2nccc(-c3cccs3)n2n1 (stereo not drawn) [Example 272, 1-(5-hydroxy-1,5-dimethylhexyl)-3-(7-thiophen-2-yl[1,2,4]triazolo[1,5-a]pyrimidin-2-yl)urea] | 0.069 µM
COc1ccc(-c2ccnc3nc(NC(=O)NC(C)CCC(=O)N4CCOCC4)nn23)cc1 (stereo not drawn) [Example 273] | 0.6 µM
COc1ccc(-c2ccnc3nc(NC(=O)NC(C)CCCC(=O)N4CCOCC4)nn23)cc1 (stereo not drawn) [Example 275] | 0.54 µM
CCOCCCC(C)NC(=O)Nc1nc2nccc(-c3ccc(OC)cc3)n2n1 (stereo not drawn) [Example 276] | 0.12 µM
COc1ccc(-c2ccnc3nc(NC(=O)NC(C)CCN(C)C(=O)OC(C)(C)C)nn23)cc1 (stereo not drawn) [Example 277] | 0.18 µM
CCOCCC(C)NC(=O)Nc1nc2nccc(-c3cccs3)n2n1 (stereo not drawn) [Example 281] | 0.12 µM
COc1ccc(-c2ccnc3nc(NC(=O)NC(C)CCCN(C)C(=O)OC(C)(C)C)nn23)cc1 (stereo not drawn) [Example 282] | 0.058 µM
COc1ccc(-c2ccnc3nc(NC(=O)NC(C)CCCN(C)C(C)=O)nn23)cc1 (stereo not drawn) [Example 283] | 0.2 µM
CCCC(C)NC(=O)Nc1nc2nccc(-c3cccs3)n2n1 (stereo not drawn) [Example 284] | 0.19 µM

Structure (SMILES) | EC20 (concentration necessary for suppressing 20% of the expression level of MHC class I molecules)
CCCC(C)NC(=O)Nc1nc2nccc(-c3ccc(OC)cc3)n2n1 (stereo not drawn) [Example 285] | 0.32 µM
CCCC(C)NC(=O)Nc1nc2nccc(-c3ccc(OCCOC)cc3)n2n1 (stereo not drawn) [Example 286] | 0.16 µM
CC(CCCC(=O)N1CCOCC1)NC(=O)Nc1nc2nccc(-c3cccs3)n2n1 (stereo not drawn) [Example 287] | 0.77 µM
COC(C)(C)CCC[C@H](C)NC(=O)Nc1nc2nccc(-c3cccs3)n2n1 [Example 288] | 0.02 µM
COCC/C=C/[C@H](C)NC(=O)Nc1nc2nccc(-c3ccc(OC)cc3)n2n1 [Example 289] | 0.11 µM
COCC/C=C/[C@H](C)NC(=O)Nc1nc2nccc(-c3cccs3)n2n1 [Example 290] | 0.34 µM
COc1cccc([C@H](C)NC(=O)Nc2nc3nccc(-c4ccc(OC(=O)N5CCC(N6CCCCC6)CC5)cc4)n3n2)c1 [Example 293] | 0.09 µM
COc1cc(C(C)NC(=O)Nc2nc3nccc(-c4cccs4)n3n2)cc(OC)c1OC (stereo not drawn) [Example 294] | 0.07 µM
CC(NC(=O)Nc1nc2nccc(-c3cccs3)n2n1)c1ccc2c(c1)OCO2 (stereo not drawn) [Example 295] | 0.79 µM
COc1ccc(-c2ccnc3nc(NC(=O)NC(C)c4cc(OC)c(OC)c(OC)c4)nn23)cc1 (stereo not drawn) [Example 296] | 0.07 µM
COc1ccc(-c2ccnc3nc(NC(=O)NC(C)c4ccc5c(c4)OCO5)nn23)cc1 (stereo not drawn) [Example 297] | 0.11 µM
COc1ccc(-c2ccnc3nc(NC(=O)NC(C)CCN(C)C(=O)C(C)(C)OC(C)=O)nn23)cc1 (stereo not drawn) [Example 298] | 0.08 µM
CC(=O)OC(C)(C)C(=O)N(C)CCC(C)NC(=O)Nc1nc2nccc(-c3cccs3)n2n1 (stereo not drawn) [Example 299] | 0.43 µM
CC(NC(=O)Nc1nc2nccc(-c3ccc4c(c3)OCO4)n2n1)c1ccc2c(c1)OCO2 (stereo not drawn) [Example 301] | 0.64 µM
COc1cc(C(C)NC(=O)Nc2nc3nccc(-c4ccc5c(c4)OCO5)n3n2)cc(OC)c1OC (stereo not drawn) [Example 302, 1-[7-(3,4-methylenedioxyphenyl)-[1,2,4]triazolo[1,5-a]pyrimidin-2-yl]-3-[1-(3,4,5-trimethoxyphenyl)ethyl]urea] | 0.18 µM
COc1cccc([C@H](C)NC(=O)Nc2nc3nccc(-c4cccc(Cl)c4)n3n2)c1 [Example 303] | 0.68 µM
COc1cc(C(C)NC(=O)Nc2nc3nccc(-c4cccc(Cl)c4)n3n2)cc(OC)c1OC (stereo not drawn) [Example 305] | 0.52 µM
CC(NC(=O)Nc1nc2nccc(-c3cccc(OCc4cccnc4)c3)n2n1)c1ccc2c(c1)OCO2 (stereo not drawn) [Example 306] | 0.23 µM
COc1cc(C(C)NC(=O)Nc2nc3nccc(-c4cccc(OCc5cccnc5)c4)n3n2)cc(OC)c1OC (stereo not drawn) [Example 307] | 0.14 µM
